Measurements: US7119256B2, “Gene encoding acetolactate synthase” (priority 2000, dated 2006)
“And” between values parts separate entries of the source, which are not always exact repeats. Equal values may be shown once.

Experiments:
mutant ALS protein [1] = experiment: Herbicide sensitivity of ALS partially purified from the resistant mutant (acetoin colorimetric ALS activity); assay type: biochemical, rice (Kinmaze)
Description: (§1) First, 200 g or more of resistant mutant was prepared by a liquid culture method (no supplementation with bispyribac-sodium), the culture having a composition as shown in Table 1 but without Gelrite. Then, about 150 g of the resistant mutant was homogenized using Hiscotron in a volume of buffer-1 [100 mM potassium phosphate buffer (pH 7.5) containing 20% (v/v) glycerol, 0.5 mM thiamin pyrophosphate (TPP), 10 μM flavin adenine dinucleotide (FAD), 0.5 mM MgCl2, and a volume of polyvinyl polypyrrolidone one-tenth that of tissue volume] 3-fold greater than tissue volume. The homogenate was filtered through nylon gauze, and then centrifuged at 15,000×g for 20 min. Ammonium sulfate was added to the centrifuged supernatant to 50% saturation, and then allowed to stand in ice for approximately 1 hour. The mixture was again centrifuged at 15,000×g for 20 min, and then the precipitated fraction was dissolved in about 30 ml of buffer-2 [10 mM Tris hydrochloric acid buffer (pH 7.5) containing 20% (v/v) glycerol, 0.5 mM TPP and 0.5 mM MgCl2]. […]
(§2) Next, the protein concentration of the crude enzyme solution was measured by the Bradford method according to the manual of Bio-Rad Protein Assay. […]
(§3) ALS activity resulting from the mutant ALS protein contained in the eluted fractions apportioned into each test tube for apportion was measured as follows. A reaction solution to be used in a measurement reaction was prepared by mixing an eluted fraction to be measured with a solution comprising 20 mM sodium pyruvate, 0.5 mM TPP, 0.5 mM MgCl2, 10 μM FAD and 20 mM potassium phosphate buffer (pH 7.5). […] After the eluted fraction to be measured was added, the measurement reaction was performed at 30° C. for 40 to 60 min. […]
(§4) Then, to quantify acetoin contained in the reaction solution, 1 ml of 0.5% (w/v) creatine and 1 ml of 5% (w/v) α-naphthol dissolved in 2.5 N sodium hydroxide was added to the reaction solution, followed by incubation at 37° C. for 10 min. Acetoin was then quantified by color comparison of the absorbance (at 525 nm) of the reaction solution, thereby evaluating ALS activity. […]

wild type ALS protein = target: T1, wild type ALS protein (Oryza sativa subsp. japonica, UniProt Q6K2E8); experiment: Herbicide sensitivity of partially purified wild type ALS protein (acetoin colorimetric ALS activity); assay type: biochemical, rice (Kinmaze); set-up: the wild type ALS protein was separated and purified in the same manner and used for the experiment; from tissue; host or cells: wild type rice (Kinmaze) cultured cells, liquid culture; ammonium sulfate, Sephadex G-25, HiTrap Q
T1 sequence (Q6K2E8 44-644): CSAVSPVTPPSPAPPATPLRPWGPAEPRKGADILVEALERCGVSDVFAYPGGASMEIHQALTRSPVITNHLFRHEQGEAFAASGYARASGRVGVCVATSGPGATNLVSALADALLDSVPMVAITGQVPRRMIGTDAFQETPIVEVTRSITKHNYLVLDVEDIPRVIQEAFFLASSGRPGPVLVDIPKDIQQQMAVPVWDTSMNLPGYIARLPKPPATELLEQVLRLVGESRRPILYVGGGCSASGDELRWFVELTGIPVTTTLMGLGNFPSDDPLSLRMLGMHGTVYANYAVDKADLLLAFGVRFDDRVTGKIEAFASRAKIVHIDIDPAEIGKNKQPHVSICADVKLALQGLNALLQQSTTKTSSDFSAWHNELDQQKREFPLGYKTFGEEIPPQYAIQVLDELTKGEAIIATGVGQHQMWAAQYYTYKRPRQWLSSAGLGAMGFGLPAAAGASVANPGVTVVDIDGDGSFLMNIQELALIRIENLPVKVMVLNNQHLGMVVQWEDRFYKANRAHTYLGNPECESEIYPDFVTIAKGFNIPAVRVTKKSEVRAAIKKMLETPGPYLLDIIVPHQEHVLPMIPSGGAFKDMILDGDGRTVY

S627I mutant ALS = target: T2, S627I mutant ALS (Oryza sativa subsp. japonica, UniProt Q6K2E8, S627I); experiment: Herbicide sensitivity of crude ALS with S627I mutation only, 1 mM valine; assay type: biochemical, rice; conditions: crude enzyme
T2 construct: one type of cDNA containing a full length ALS gene could be obtained from a cDNA library derived from the wild type; made in house; host or cells: E. coli JM 109, pGEX-2T backbone; crude enzyme solution
Description: (§5) A plasmid having W548L mutant ALS gene or a plasmid having S627I mutant ALS gene was transformed into E. coli strain JM 109. The colonies obtained from transformation were subjected to liquid culture, expression of GST induction protein was induced in the same manner as in Examples 4 and 5, a crude enzyme solution was prepared, and then herbicide sensitivity of ALS was examined in the presence of 1 mM valine.

W548L mutant ALS = target: T3, W548L mutant ALS (Oryza sativa subsp. japonica, UniProt Q6K2E8, W548L); experiment: Herbicide sensitivity of crude ALS with W548L mutation only, 1 mM valine; assay type: biochemical, rice; conditions: crude enzyme
T3 construct: one type of cDNA containing a full length ALS gene could be obtained from a cDNA library derived from the wild type; made in house; host or cells: E. coli JM 109, pGEX-2T backbone (pGEX-2T-wALS); crude enzyme solution
Description: as §5

mutant ALS protein [2] = target: mutant ALS protein (Oryza sativa subsp. japonica, UniProt Q6K2E8, S627I/W548L); experiment: Herbicide sensitivity of ALS partially purified from the resistant mutant (acetoin colorimetric ALS activity); assay type: biochemical, rice (Kinmaze); set-up: from tissue; host or cells: resistant mutant rice (Kinmaze) cultured cells, liquid culture; ammonium sulfate, Sephadex G-25, HiTrap Q
Description: as §1, §2, §3, §4

ALS isozyme I = target: T4, ALS isozyme I (Escherichia coli, UniProt P08142+P0ADF8); experiment: Inhibition by valine of ALS activity derived from E. coli (no plasmid); assay type: biochemical
T4 construct: CK1 (without plasmid); endogenous in cells
Description: ALS activity resulting from the mutant ALS protein contained in the eluted fractions apportioned into each test tube for apportion was measured as follows. A reaction solution to be used in a measurement reaction was prepared by mixing an eluted fraction to be measured with a solution comprising 20 mM sodium pyruvate, 0.5 mM TPP, 0.5 mM MgCl2, 10 μM FAD and 20 mM potassium phosphate buffer (pH 7.5). One ml of this reaction solution was used. After the eluted fraction to be measured was added, the measurement reaction was performed at 30° C. for 40 to 60 min. Then, the reaction was stopped by addition of 0.1 ml of 6N sulfuric acid (or 0.25 N sodium hydroxide).
The prepared ALS enzyme contains ALS activity derived from E. coli.

[3] = 1 mM Valine, E. coli without plasmid

T4 sequence (P0ADF8 whole entry): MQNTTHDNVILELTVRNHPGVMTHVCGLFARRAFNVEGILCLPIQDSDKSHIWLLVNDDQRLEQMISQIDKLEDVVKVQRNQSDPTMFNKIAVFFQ
T4 sequence (P08142 whole entry): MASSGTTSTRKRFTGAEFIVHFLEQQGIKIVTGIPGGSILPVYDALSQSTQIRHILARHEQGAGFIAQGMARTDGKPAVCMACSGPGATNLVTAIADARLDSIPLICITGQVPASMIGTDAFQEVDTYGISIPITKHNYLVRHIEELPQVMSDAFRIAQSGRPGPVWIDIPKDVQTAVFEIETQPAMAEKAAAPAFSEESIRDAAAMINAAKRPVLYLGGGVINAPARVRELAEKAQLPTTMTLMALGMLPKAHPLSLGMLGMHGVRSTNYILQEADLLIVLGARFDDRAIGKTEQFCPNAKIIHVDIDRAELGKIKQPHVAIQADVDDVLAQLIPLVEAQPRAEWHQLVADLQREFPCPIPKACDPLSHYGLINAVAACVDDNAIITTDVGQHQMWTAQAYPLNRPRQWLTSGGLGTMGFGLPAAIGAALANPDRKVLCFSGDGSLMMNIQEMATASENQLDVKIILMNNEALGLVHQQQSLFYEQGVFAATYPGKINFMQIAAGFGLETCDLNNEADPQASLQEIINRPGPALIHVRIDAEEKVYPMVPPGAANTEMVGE
mutant ALS protein (Oryza sativa subsp. japonica, UniProt Q6K2E8, S627I/W548L), sequence (Q6K2E8 44-644 W548L/S627I): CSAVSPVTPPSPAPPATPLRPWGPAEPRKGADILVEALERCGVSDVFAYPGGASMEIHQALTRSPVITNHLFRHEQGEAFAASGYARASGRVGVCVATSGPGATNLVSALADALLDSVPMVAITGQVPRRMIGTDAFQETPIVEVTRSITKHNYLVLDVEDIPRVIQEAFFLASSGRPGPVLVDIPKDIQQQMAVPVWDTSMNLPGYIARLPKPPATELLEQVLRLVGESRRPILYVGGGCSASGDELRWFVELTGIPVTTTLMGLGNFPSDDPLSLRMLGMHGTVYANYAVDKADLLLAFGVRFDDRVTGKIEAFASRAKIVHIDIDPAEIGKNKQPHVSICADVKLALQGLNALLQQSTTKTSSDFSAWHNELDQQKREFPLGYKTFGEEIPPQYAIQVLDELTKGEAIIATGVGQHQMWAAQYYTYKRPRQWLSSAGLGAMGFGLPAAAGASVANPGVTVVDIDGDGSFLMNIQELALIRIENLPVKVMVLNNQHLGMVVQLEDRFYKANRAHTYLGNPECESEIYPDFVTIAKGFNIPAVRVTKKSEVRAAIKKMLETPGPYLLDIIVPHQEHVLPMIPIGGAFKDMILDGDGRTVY
T3 sequence (Q6K2E8 44-644 W548L): as the sequence (Q6K2E8 44-644 W548L/S627I) above, with I584S counted along it
T2 sequence (Q6K2E8 44-644 S627I): as the sequence (Q6K2E8 44-644 W548L/S627I) above, with L505W counted along it

SMILES	RS ratio Resistant mutant: I50 (resistant mutant)/I50 (wild type) (mutant ALS protein [1])	IC50 (wild type ALS protein)	resistance imparted by S627I mutation alone (S627I mutant ALS)	resistance imparted by W548L mutation alone (W548L mutant ALS)	IC50 (mutant ALS protein [2])	ALS activity (ALS isozyme I; [3])	Inhibition rate (ALS isozyme I; [3])	inhibition at 1000 µM (ALS isozyme I; 1 mM Valine, E. coli without plasmid, read-out: Inhibition rate)	inhibition of ALS activity derived from E. coli (ALS isozyme I; 1 mM valine)
CC(C)C1(C)N=C(c2nc3ccccc3cc2C(=O)O)NC1=O (stereo not drawn) [Imazaquin, imazaquin]	11.3	1.48 µM	results were similar to those for bispyribac-sodium	results were similar to those for bispyribac-sodium	16.7 µM	–	–	–	–
CC(C)[C@H](N)C(=O)O [Valine, valine]	–	–	–	–	–	0.1768 OD525/40 min/0.05 ml and 0.1831 OD525/40 min/0.05 ml	88%	86%	almost completely inhibited
